Viability data for 30 compounds are collected here from patent US9212151B2, “Heterocyclic compounds useful for kinase inhibition” (Amitech Therapeutic Solutions, Inc., priority 2010, dated 2015).

The data set can be described thus: MTT cell viability assay, compounds at 5, 1 and 0.2 μM, 48 hours. It counts as cell-based. The settings on record: human, A549 tumor cells. How it is done: MTT assay is used to determine cell proliferation, percent of viable cells, and cytotoxicity. MTT (3-[4,5-dimethylthiazol-2-yl]2,5-diphenyltetrazolium bromide) is a yellow dye, which can be absorbed by the living cells and be reduced to purplish blue formazan crystals by succinate tetrazolium reductase in mitochondria. Formazan formation can therefore be used to assess and determine the survival rate of cells.
Tumor cells (A549) were plated at 2500 cells/well of a 96-well plate in complete growth medium (DMEM+10% FBS, antibiotic/antimycotic, fungizone, L-glutamine, sodium pyruvate, and non-essential amino acids). The cells were allowed to grow overnight. After cell proliferation, the cells were washed and re-suspended in fresh culture medium and placed in 96 well plates.
To each of the 96 well plates containing A549 and a control, 5, 1, and 0.2 μM of the exemplary compounds 1-200 were add. The 96 well plates were incubated for 48 hours. Cell viability was measured by adding MTT (Sigma) at 5 mg/ml for 4 h to the cells and then removing the medium and resuspending each well in 50 μl DMSO to solubilize the crystals. The 96-well plates were read on a plate-scanning spectrophotometer (BioTek) at an absorbance of […]. The survival rate of cells was calculated based on the measurement of absorption at the 570 nm wavelength by enzyme immunoassay analyzer.
For orientation: Tetrazolium dyes change colour on reduction, which living cells bring about.

Bounds are passed on as bounds.

With `FC(F)(F)c1cccc(Nc2nnc(-c3cccc(Oc4ccnc5cc(C(F)(F)F)ccc45)c3)[nH]2)c1` [Compound 165], the viability (usually the share of living cells, or the viability signal relative to a control) at 48 h, 0.2 µM is above 70%; the viability at 48 h, 1 µM was above 70%; the viability at 48 h, 5 µM is above 70%.
Compound `COc1ccc2c(Oc3cccc(-c4nnc(Nc5cccc(C(F)(F)F)c5)[nH]4)c3)ncnc2c1` [Compound 87] yielded a viability at 48 h, 0.2 µM above 70%; a viability at 48 h, 1 µM above 70%; a viability at 48 h, 5 µM above 70%.
`FC(F)(F)c1cccc(Nc2nnc(-c3ccc(Oc4ncnc5[nH]ccc45)cc3)[nH]2)c1` [Compound 10] displayed a viability at 48 h, 0.2 µM above 70%; a viability at 48 h, 1 µM above 70%; a viability at 48 h, 5 µM of 50 to 70%.
For `CNC(=O)CSc1nc(N)cc(Oc2ccc(-c3nnc(Nc4cccc(C(F)(F)F)c4)[nH]3)cc2)n1` [Compound 117], the viability at 48 h, 0.2 µM is above 70%; the viability at 48 h, 1 µM was above 70%; the viability at 48 h, 5 µM was above 70%.
Turning to `NCCSc1nc(N)cc(Oc2ccc(-c3nnc(Nc4cccc(C(F)(F)F)c4)[nH]3)cc2)n1` [Compound 62], the viability at 48 h, 0.2 µM is above 70%; the viability at 48 h, 1 µM is above 70%; the viability at 48 h, 5 µM was above 70%.
For `Nc1cc(F)cc(Oc2ccc(-c3nnc(Nc4cccc(C(F)(F)F)c4)[nH]3)cc2)c1` [Compound 156], the viability at 48 h, 0.2 µM was above 70%; the viability at 48 h, 1 µM is above 70%; the viability at 48 h, 5 µM lay in the range of 50 to 70%.
`CSc1nc(N)cc(Oc2ccc(-c3nnc(Nc4cccc(C#N)c4)[nH]3)cc2)n1` [Compound 128] displayed a viability at 48 h, 0.2 µM above 70%; a viability at 48 h, 1 µM above 70%; a viability at 48 h, 5 µM above 70%.
The compound `Cc1cc(Oc2cccc(-c3nnc(Nc4cccc(C(F)(F)F)c4)[nH]3)c2)c2ccccc2n1` [Compound 168] yielded a viability at 48 h, 0.2 µM above 70%; a viability at 48 h, 1 µM above 70%; a viability at 48 h, 5 µM of 50 to 70%.
Compound `Cc1nccc(Oc2cccc(-c3nnc(Nc4cccc(C(F)(F)F)c4)[nH]3)c2)n1` [Compound 55] gave a viability at 48 h, 0.2 µM of 50 to 70%; a viability at 48 h, 1 µM of 50 to 70%; a viability at 48 h, 5 µM below 50%.
For `FC(F)(F)c1cccc(Nc2nnc(-c3ccc(Oc4ccnc5ccccc45)cc3)[nH]2)c1` [Compound 12], the viability at 48 h, 0.2 µM was above 70%; the viability at 48 h, 1 µM is above 70%; the viability at 48 h, 5 µM lay in the range of 50 to 70%.
Regarding `Nc1cc(Oc2ccc(-c3nnc(Nc4cccc(C(F)(F)F)c4)o3)cc2)ccn1` [Compound 59], the viability at 48 h, 0.2 µM is above 70%; the viability at 48 h, 1 µM was above 70%; the viability at 48 h, 5 µM was above 70%.
On to `Nc1nc(OCC2CC2)cc(Oc2ccc(-c3nnc(Nc4cccc(C(F)(F)F)c4)[nH]3)cc2)n1` [Compound 84], for which the viability at 48 h, 0.2 µM was above 70%; the viability at 48 h, 1 µM is above 70%; the viability at 48 h, 5 µM was above 70%.
In turn, `Cc1cc(Oc2cccc(-c3nnc(Nc4cccc(C(F)(F)F)c4)[nH]3)c2)ccn1` [Compound 91] displayed a viability at 48 h, 0.2 µM above 70%; a viability at 48 h, 1 µM above 70%; a viability at 48 h, 5 µM of 50 to 70%.
`Nc1cc(Oc2ccc(-c3nnc(Nc4cccc(C(F)(F)F)c4)[nH]3)cc2)ncn1` [Compound 2] yielded a viability at 48 h, 0.2 µM above 70%; a viability at 48 h, 1 µM above 70%; a viability at 48 h, 5 µM above 70%.
Compound `Fc1ccc2c(Oc3ccc(-c4nnc(Nc5cccc(C(F)(F)F)c5)[nH]4)cc3)ccnc2c1` [Compound 186] gave a viability at 48 h, 0.2 µM above 70%; a viability at 48 h, 1 µM above 70%; a viability at 48 h, 5 µM above 70%.
`Cc1nc(N)cc(Oc2cccc(-c3nnc(Nc4cccc(C(F)(F)F)c4)[nH]3)c2)n1` [Compound 100] came in with a viability at 48 h, 0.2 µM above 70%; a viability at 48 h, 1 µM above 70%; a viability at 48 h, 5 µM above 70%.
`FC(F)(F)c1cccc(Nc2nnc(-c3ccc(Oc4ccncc4)cc3)o2)c1` [Compound 29] had a viability at 48 h, 0.2 µM above 70%; a viability at 48 h, 1 µM above 70%; a viability at 48 h, 5 µM of 50 to 70%.
`CC(C)(C)Sc1nc(N)cc(Oc2ccc(-c3nnc(Nc4cccc(C(F)(F)F)c4)[nH]3)cc2)n1` [Compound 80] came in with a viability at 48 h, 0.2 µM above 70%; a viability at 48 h, 1 µM of 50 to 70%; a viability at 48 h, 5 µM below 50%.
Taken in the same sequence, the figures for `COc1ccc2c(Oc3ccc(-c4nnc(Nc5cccc(C(F)(F)F)c5)s4)cc3)ccnc2c1` [Compound 46] were above 70%, above 70% and below 50%.
On the same counts, the results for `FC(F)(F)c1cccc(Nc2nnc(-c3cccc(Oc4ccnc5ccccc45)c3)o2)c1` [Compound 42] are above 70%, above 70% and above 70%.
On the same counts, the results for `CSc1nc(N)cc(Oc2ccc(-c3nnc(Nc4ccccc4Cl)[nH]3)cc2)n1` [Compound 140] are above 70%, above 70% and 50 to 70%.
In turn, `Cc1ccc(-c2nnc(Nc3cccc(C(F)(F)F)c3)[nH]2)cc1Oc1cccnc1` [Compound 177] displayed a viability at 48 h, 0.2 µM above 70%; a viability at 48 h, 1 µM above 70%; a viability at 48 h, 5 µM above 70%.
`Nc1cc(Oc2ccc(-c3nnc(Nc4cccc(C(F)(F)F)c4)[nH]3)cc2)nc(SCCO)n1` [Compound 115] had a viability at 48 h, 0.2 µM above 70%; a viability at 48 h, 1 µM above 70%; a viability at 48 h, 5 µM above 70%.
Compound `FC(F)(F)c1cccc(Nc2nnc(-c3ccc(Oc4ccnc5ccccc45)cc3)s2)c1` [Compound 47] came in with a viability at 48 h, 0.2 µM above 70%; a viability at 48 h, 1 µM above 70%; a viability at 48 h, 5 µM above 70%.
The compound `FC(F)(F)c1cccc(Nc2nnc(-c3ccc(Oc4ncnc5[nH]ccc45)cc3)o2)c1` [Compound 32] showed a viability at 48 h, 0.2 µM above 70%; a viability at 48 h, 1 µM above 70%; a viability at 48 h, 5 µM above 70%.
Compound `COc1cc(-c2nnc(Nc3cccc(C(F)(F)F)c3)[nH]2)ccc1Oc1cc(N)nc(SC)n1` [Compound 109] returned a viability at 48 h, 0.2 µM above 70%; a viability at 48 h, 1 µM above 70%; a viability at 48 h, 5 µM below 50%.
As for `FC(F)(F)c1cccc(Nc2nnc(-c3ccc(OCc4ccncc4)cc3)[nH]2)c1` [Compound 143], the viability at 48 h, 0.2 µM was above 70%; the viability at 48 h, 1 µM is above 70%; the viability at 48 h, 5 µM was above 70%.
As to `FC(F)(F)c1cccc(Nc2nnc(-c3ccc(Oc4cc(Cl)ccn4)cc3)[nH]2)c1` [Compound 5], the viability at 48 h, 0.2 µM is above 70%; the viability at 48 h, 1 µM is above 70%; the viability at 48 h, 5 µM was above 70%.
Compound `FC(F)(F)Oc1ccc2c(Oc3cccc(-c4nnc(Nc5cccc(C(F)(F)F)c5)[nH]4)c3)ccnc2c1` [Compound 173] showed a viability at 48 h, 0.2 µM above 70%; a viability at 48 h, 1 µM above 70%; a viability at 48 h, 5 µM above 70%.
`Nc1cc(Oc2cccc(-c3nnc(Nc4cccc(C(F)(F)F)c4)o3)c2)nc(N)n1` [Compound 35] displayed a viability at 48 h, 0.2 µM above 70%; a viability at 48 h, 1 µM above 70%; a viability at 48 h, 5 µM above 70%.
